Numbering of substitutions follows the chain as printed.
Experiments:
GlyT2 F515W mutant = target: T1, GlyT2 F515W mutant (Homo sapiens, UniProt Q9Y345, F515W); experiment: Inhibitor washout time course (reversibility); format: cell-based; design: expressed in transfected cells; host or cells: Xenopus laevis oocytes injected with mutant RNA (pOTV vector); conditions: for Half-life (transport current recovery) / Recovery at 30 Min: washout after 4 min IC50 concentration
T1 sequence (Q9Y345 1-797 F515W): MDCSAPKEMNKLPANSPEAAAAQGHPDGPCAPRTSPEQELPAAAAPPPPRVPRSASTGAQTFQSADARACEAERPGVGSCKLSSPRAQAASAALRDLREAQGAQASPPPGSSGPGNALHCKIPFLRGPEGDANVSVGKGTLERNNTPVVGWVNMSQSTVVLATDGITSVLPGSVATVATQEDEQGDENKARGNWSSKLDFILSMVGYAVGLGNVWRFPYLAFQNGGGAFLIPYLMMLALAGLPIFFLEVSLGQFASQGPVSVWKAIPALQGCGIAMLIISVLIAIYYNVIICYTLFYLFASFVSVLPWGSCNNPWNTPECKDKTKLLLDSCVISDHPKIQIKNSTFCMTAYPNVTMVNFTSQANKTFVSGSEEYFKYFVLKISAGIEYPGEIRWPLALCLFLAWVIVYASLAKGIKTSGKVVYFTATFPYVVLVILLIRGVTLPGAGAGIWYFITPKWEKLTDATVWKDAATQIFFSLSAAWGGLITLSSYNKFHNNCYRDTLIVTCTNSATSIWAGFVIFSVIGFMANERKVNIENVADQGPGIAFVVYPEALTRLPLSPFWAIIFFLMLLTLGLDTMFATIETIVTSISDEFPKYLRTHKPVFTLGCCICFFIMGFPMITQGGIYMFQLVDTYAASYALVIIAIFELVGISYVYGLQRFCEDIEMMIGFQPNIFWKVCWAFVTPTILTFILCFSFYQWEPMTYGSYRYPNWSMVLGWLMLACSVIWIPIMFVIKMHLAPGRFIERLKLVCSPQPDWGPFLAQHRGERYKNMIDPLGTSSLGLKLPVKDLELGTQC
Description: (§1) Reversibility of GlyT2 inhibitors was determined by applying an EC50 concentration of glycine followed by co-application of the inhibitor at an IC50 concentration once a stable current had been achieved. Inhibitors were applied for 4 min as this was sufficient time to produce substantial inhibition for each compound and allowed for their direct comparison. At the conclusion of 4 min (time 0), ND96 buffer was perfused through the recording chamber to wash the oocyte. […] Transport currents were normalized to glycine currents in the absence of inhibitor and converted to % recovery values via Y=It−It=0/Imax−It=0, where Y is % recovery, I is current in nA, Imax is the maximal current produced by the glycine EC50, and t is time in minutes. Washout kinetics were then determined by fitting % recovery values to the first-order rate equation: Y=(Y0−Plateau).e^(−Kt)+Plateau, where Y is the % recovery, Y0 is the point, which crosses the Y-axis (constrained to 0) and increases to the plateau (constrained to between 0 and 100), K is the rate constant (1/t), and t is time in minutes. […] Because of the slowly […] nature of the inhibitors, washout time courses involving cyclodextrin treatment could not be performed on the same cell. […] As these experiments could not occur on the same cell, differences in half-life and maximal recovery were analysed via an unpaired two-tailed t test.

GlyT2 Y430F mutant = target: T2, GlyT2 Y430F mutant (Homo sapiens, UniProt Q9Y345, Y430F); experiment: Inhibitor washout time course (reversibility); format: cell-based; design: expressed in transfected cells; host or cells: Xenopus laevis oocytes injected with mutant RNA (pOTV vector)
T2 sequence (Q9Y345 1-797 Y430F): T1 sequence (Q9Y345 1-797 F515W) with Y430F, W515F
Description: as §1

[1] = washout after 4 min IC50 concentration

| Half-life (transport current recovery) (GlyT2 F515W mutant; F515W) | Recovery at 30 Min (GlyT2 F515W mutant; F515W) | Half-life (transport current recovery) (GlyT2 Y430F mutant; [1]) | Recovery at 30 Min (GlyT2 Y430F mutant; [1]) | Increase of recovery at 30 min compared to WT (GlyT2 F515W mutant; F515W vs WT) [fold] | Increase in recovery of current 30 min after application, vs WT (GlyT2 F515W mutant; F515W) [%] | Reduction in recovery of current 30 min after application, vs WT (GlyT2 Y430F mutant) [%] | Increase in recovery after 30 min, vs WT (GlyT2 Y430F mutant) [%] | Structure (SMILES) |
| --- | --- | --- | --- | --- | --- | --- | --- | --- |
| No Recovery | No Recovery | No Recovery | No Recovery | – | – | – | – | CCCCCCCC/C=C\CCCCCCCC(=O)N[C@@H](Cc1c[nH]c2ccccc12)C(=O)O [Oleoyl-L-Tryptophan, oleoyl-L-tryptophan] |
| – | 60.1% | – | 24.7% | 1.3 | – | – | – | CCCCCCCC/C=C\CCCCCCCC(=O)O[C@H](CC(=O)[O-])C[N+](C)(C)C [Oleoyl-L-Carnitine, oleoyl-L-carnitine] |
| 2.0 ± 0.2 min | 70.1 ± 1.9 % | – | 26.6 ± 2.3 % | – | 19.0 | 24.5 | – | CCCCCCCC/C=C\CCCCCCCC(=O)N[C@@H](CC(C)C)C(=O)O [Oleoyl-L-Leucine, oleoyl-L-leucine] |
| – | 57.8 ± 4.1% | – | 68.5 ± 2.1 % | – | – | – | 13.4 | CCCCCCCC/C=C\CCCCCCCC(=O)N[C@@H](CCCCN)C(=O)O [Oleoyl-L-Lysine, oleoyl-L-lysine] |

Reference: publication PMC9873984, “Membrane cholesterol regulates inhibition and substrate transport by the glycine transporter, GlyT2” (Life Science Alliance, 2023)
